Where two headings read alike, the source gives them in different places. Peptide text beside a SMILES is read from it. * marks the point of attachment. Propanoyl(3-C8F17) = O=C(CCC(F)(F)C(F)(F)C(F)(F)C(F)(F)C(F)(F)C(F)(F)C(F)(F)C(F)(F)F)*
Key:
human GALR1 = molecular target: T1, human GALR1 (Homo sapiens, UniProt P47211); experiment: Forskolin-induced cAMP accumulation, GloSensor cAMP assay in HEK293 cells; format: cell-based; conditions: HEK293 cells stably expressing GalR1, 1 μM compound
T1 construct: expressed in transfected cells; transiently transfected with pGloSensor-22F
T1 sequence (P47211 1-349): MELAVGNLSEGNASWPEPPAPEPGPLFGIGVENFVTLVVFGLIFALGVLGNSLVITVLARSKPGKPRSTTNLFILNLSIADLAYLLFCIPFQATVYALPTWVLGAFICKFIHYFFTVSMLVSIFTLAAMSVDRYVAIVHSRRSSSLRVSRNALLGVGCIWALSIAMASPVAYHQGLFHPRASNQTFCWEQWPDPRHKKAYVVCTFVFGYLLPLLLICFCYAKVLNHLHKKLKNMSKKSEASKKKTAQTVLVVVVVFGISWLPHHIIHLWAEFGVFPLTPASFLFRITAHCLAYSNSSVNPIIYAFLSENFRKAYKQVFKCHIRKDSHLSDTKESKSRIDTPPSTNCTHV
Protocol: The effects were examined by using the GloSensor™ cAMP Assay according to manufacturer recommendations (Promega, Madison Wis., USA) with a few modifications. […] Following pre-equilibration for 2 h at 25° C., D-luciferin-loaded cells were distributed (100,000 cells per well) in a white 96-well plate and kinetic recordings of their luminescence level were acquired using a FlexStation II (Molecular Devices, Sunnyvale Calif., USA). Compounds to be tested were injected at various concentrations 10 min before forskolin addition (0.5 μM final concentration) and readings were pursued for 30 min. Experiments were conducted at 25° C. in the presence of 0.1 mM IBMX to prevent the degradation of cAMP by phospodiesterases.

GalR2 = molecular target: T2, GalR2 (Homo sapiens, UniProt O43603); experiment: Calcium mobilization in CHO cells expressing GalR2; format: cell-based
T2 construct: expressed in transfected cells; host or cells: CHO cells
T2 sequence (O43603 1-387): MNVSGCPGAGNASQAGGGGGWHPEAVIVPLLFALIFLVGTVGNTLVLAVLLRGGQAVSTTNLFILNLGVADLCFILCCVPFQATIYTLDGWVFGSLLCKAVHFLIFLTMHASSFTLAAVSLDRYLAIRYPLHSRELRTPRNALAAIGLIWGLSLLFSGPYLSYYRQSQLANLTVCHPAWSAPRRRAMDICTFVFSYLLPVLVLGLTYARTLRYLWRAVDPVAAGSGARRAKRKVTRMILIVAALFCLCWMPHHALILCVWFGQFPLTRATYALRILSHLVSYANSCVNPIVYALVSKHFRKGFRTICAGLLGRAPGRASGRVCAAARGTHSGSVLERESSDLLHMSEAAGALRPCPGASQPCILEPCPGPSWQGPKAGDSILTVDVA

Human plasma stability = format: in vitro ADME; conditions: 37° C., 2 h incubation, read-out: Human plasma stability (t1/2)
Protocol: This procedure is designed to determine the stability of a test compound in blood or plasma from human or animal species in a 96-well plate format. The test compound is quantified at 5 time points by HPLC-MS/MS analysis. Test concentration: 1 μM with a final DMSO concentration of 0.5%. Experimental protocol: Blood or plasma are pre-warmed at 37° C. water bath for 5 min, followed by addition of the test compound. The incubation is performed in a 37° C. water bath for 2 h. An aliquot of the incubation mixture is transferred to acetonitrile at 0, 0.5, 1, 1.5 and 2 h, respectively. Samples are then mixed and centrifuged. Supernatants are used for HPLC-MS/MS analysis. Reference compounds Propoxycaine and propantheline are tested simultaneously with the test compound in each assay. Analytical methods Samples are analyzed by HPLC-MS/MS using selected reaction monitoring. The HPLC system consists of a binary LC pump with autosampler, a C-18 column, and a gradient. Conditions may be adjusted as necessary. Data analysis Peak areas corresponding to the test compound are recorded. The compound remaining (%) is calculated by comparing the peak area at each time point to time zero. The half-life is calculated from the slope of the initial linear range of the logarithmic curve of compound remaining (%) vs. time, assuming first order kinetics.

[1] = Non-specific adsorption to Eppendorf protein LoBind tubes; conditions: 10 μM in HEPES/BSA buffer
Protocol: The propensity of spexin analogs to bind to Eppendorf protein LoBind tubes was evaluated.
A solution of 10 μM of spexin analogs in solution in HEPES/BSA buffer was added to Eppendorf protein LoBind tubes, stirred for 5 min and vortexed for 2 min. The supernatant was removed from the tube and acetonitrile was added to dissolve the compound adsorbed to the plastic. The amount of peptide recovered was then evaluated by HPLC-MS/MS following the same protocol than above described for plasma stability analysis. The non-specific adsorption of peptides (%) was calculated by comparing the peak area of each compound recovered to that obtained with the same compound in DMSO (prevent the adsorption of the compounds to plastic).

[2] = Solubility in water by visual observation; format: physicochemical; conditions: dissolution in water to reach 100 μM
Protocol: The resulting solution was vortexed 1 min following by 1 min in bath sonication. Solubility was then assessed by visual observation of the resulting dispersion (Clear/Cloudy and presence of particulates).

[3] = molecular target: T3, human galanin GAL2 receptor (Homo sapiens, UniProt O43603); experiment: Radioligand binding assay, [125I]galanin, transfected CHO cell membranes; conditions: read-out: Affinity % of inhibition at 100 nM
T3 construct: expressed in transfected cells; host or cells: CHO cells (membrane homogenates)
T3 sequence (O43603 1-387): T2 sequence (O43603 1-387)
Protocol: Following incubation, the samples are filtered rapidly under vacuum through glass fiber filters (GF/B, Packard) presoaked with 0.3% PEI and rinsed several times with ice-cold 50 mM Tris-HCl using a 96-sample cell harvester (Unifilter, Packard). The filters are dried then counted for radioactivity in a scintillation counter (Topcount, Packard) using a scintillation cocktail (Microscint 0, Packard). The results are expressed as a percent inhibition of the control radioligand specific binding.

C57BL/6N male mice = experiment: Tail immersion test (nociception); format: in vivo
Protocol: Tail immersion test: Nociception tests were performed on male, awake C57BL/6N male mice (25-30 g weight; Janvier Labs, France). Animals were housed in groups of five per cage and kept under a 12 h/12 h light/dark cycle at 21±1° C. with ad libitum access to food and water. Experiments were performed during the light-on phase of the cycle. Mice were habituated to the testing room and equipment and handled for 1 week before starting behavioural experiments. The nociceptive thermal threshold of mice was determined using the tail immersion test. Mice were restrained in a grid pocket and their tail was immersed in a thermostated water bath. The latency (in sec) for tail withdrawal from hot water (47±0.5° C.) was taken as a measure of the nociceptive response.

[4] = CHO cells expressing GalR2, Fluo-4 AM, 37° C., read-out: EC50 Ca2+ production

solubility at 2 min [2] | Compound | % of activity at 1 μM (human GALR1) | EC50 (GalR2; [4]) | half-life at 1 μM (Human plasma stability) | Non-specific adsorption of peptide [1] | solubility [2] | inhibition at 0.1 µM [3] | tail immersion withdrawal latency (C57BL/6N male mice; 0.1 nmol icv, 15 min, baseline 9.99±0.5 sec) | tail immersion withdrawal latency (C57BL/6N male mice; 0.1 nmol icv, 30 min, baseline 9.99±0.5 sec) | tail immersion withdrawal latency (C57BL/6N male mice; 1 nmol icv, 15 min, baseline 10.12±0.59 sec) | tail immersion withdrawal latency (C57BL/6N male mice; 1 nmol icv, 30 min, baseline 10.12±0.59 sec) | EC50 (GalR2)
– | CSCC[C@H](NC(=O)[C@H](C)NC(=O)[C@H](CCC(N)=O)NC(=O)[C@@H]1CCCN1C(=O)[C@@H](NC(=O)[C@H](Cc1c[nH]c2ccccc12)NC(=O)[C@H](CC(N)=O)NC(C)=O)[C@@H](C)O)C(=O)N[C@@H](CC(C)C)C(=O)N[C@@H](Cc1ccc(O)cc1)C(=O)N[C@@H](CC(C)C)C(=O)N[C@@H](CCCCN)C(=O)NCC(=O)N[C@@H](C)C(=O)N[C@@H](CCC(N)=O)C(=O)N[C@@H](CCCCNC(=O)CCC(F)(F)C(F)(F)C(F)(F)C(F)(F)C(F)(F)C(F)(F)C(F)(F)C(F)(F)F)C(N)=O [LE-128] | 0% | 2.3 ± 4 nM | – | – | – | – | – | – | – | – | –
– | CSCC[C@H](NC(=O)[C@H](C)NC(=O)[C@H](CCC(N)=O)NC(=O)[C@@H]1CCCN1C(=O)[C@@H](NC(=O)[C@H](Cc1c[nH]c2ccccc12)NC(=O)[C@H](CC(N)=O)NC(=O)[C@H](CCCNC(=N)N)NC(=O)CNC(=O)[C@H](CCCNC(=N)N)NC(=O)CCC(F)(F)C(F)(F)C(F)(F)C(F)(F)C(F)(F)C(F)(F)C(F)(F)C(F)(F)F)[C@@H](C)O)C(=O)N[C@@H](CC(C)C)C(=O)N[C@@H](Cc1ccc(O)cc1)C(=O)N[C@@H](CC(C)C)C(=O)N[C@@H](CCCCN)C(=O)NCC(=O)N[C@@H](C)C(=O)N[C@@H](CCC(N)=O)C(N)=O [LE-130] ({Propanoyl(3-C8F17)}-RGRNWTPQAMLYLKGAQ-NH2) | 0% | 0.089 ± 0.04 nM | 342 min | 15% | > 100 µM | 98.4% | – | – | – | – | –
– | CSCC[C@H](NC(=O)[C@H](C)NC(=O)[C@H](CCC(N)=O)NC(=O)[C@@H]1CCCN1C(=O)[C@@H](NC(=O)[C@H](Cc1c[nH]c2ccccc12)NC(=O)[C@H](CC(N)=O)NC(=O)CCC(F)(F)C(F)(F)C(F)(F)C(F)(F)C(F)(F)C(F)(F)C(F)(F)C(F)(F)F)[C@@H](C)O)C(=O)N[C@@H](CC(C)C)C(=O)N[C@@H](Cc1ccc(O)cc1)C(=O)N[C@@H](CC(C)C)C(=O)N[C@@H](CCCCN)C(=O)NCC(=O)N[C@@H](C)C(=O)N[C@@H](CCC(N)=O)C(N)=O [LE-144] | 0% | 0.038 ± 0.008 nM | 150 min | 42% | > 100 µM | 100% | 14.26 ± 0.93 s | 14.06 ± 0.34 s | 15.58 ± 0.61 s | 13.94 ± 0.75 s | –
– | CSCC[C@H](NC(=O)[C@H](C)NC(=O)[C@H](CCC(N)=O)NC(=O)[C@@H]1CCCN1C(=O)[C@@H](NC(=O)[C@H](Cc1c[nH]c2ccccc12)NC(=O)[C@H](CC(N)=O)NC(C)=O)[C@@H](C)O)C(=O)N[C@@H](CC(C)C)C(=O)N[C@@H](Cc1ccc(O)cc1)C(=O)N[C@@H](CC(C)C)C(=O)N[C@@H](CCCCN)C(=O)NCC(=O)N[C@@H](C)C(=O)N[C@@H](CCC(N)=O)C(=O)N[C@@H](CCCCNC(=O)C(CCCNC(=N)N)NC(=O)CNC(=O)C(CCCNC(=N)N)NC(=O)CCC(F)(F)C(F)(F)C(F)(F)C(F)(F)C(F)(F)C(F)(F)C(F)(F)C(F)(F)F)C(N)=O (some centres unmarked) [LE-146] | – | – | – | – | – | – | – | – | – | – | 8.4 ± 0.7 nM
> 100 µM | CSCC[C@H](NC(=O)[C@H](C)NC(=O)[C@H](CCC(N)=O)NC(=O)[C@@H]1CCCN1C(=O)[C@@H](NC(=O)[C@H](Cc1c[nH]c2ccccc12)NC(=O)[C@@H](N)CC(N)=O)[C@@H](C)O)C(=O)N[C@@H](CC(C)C)C(=O)N[C@@H](Cc1ccc(O)cc1)C(=O)N[C@@H](CC(C)C)C(=O)N[C@@H](CCCCN)C(=O)NCC(=O)N[C@@H](C)C(=O)N[C@@H](CCC(N)=O)C(N)=O [SPEXIN] | 0% | – | 151 min | – | – | 68.3% | – | – | – | – | –
